Results published in ChEMBL document CHEMBL2146395, “[¹⁸F]FE@SNAP-A new PET tracer for the melanin concentrating hormone receptor 1 (MCHR1): microfluidic and vessel-based approaches” (Bioorg Med Chem, 2012).
pKd: −log10 of the molar value. One block for each molecule: values may come before it. Calls of active or inactive are those of the source. The calls are words filed in the database; no cut-off is given here.

How the values were obtained:
[1] = target: T1, Melanin-concentrating hormone receptor 1 (Homo sapiens, UniProt Q99705); assay: Binding affinity to human MCHR1 expressed in COS7 cells; assay type: cell-based, COS-7
T1 sequence (Q99705 whole entry): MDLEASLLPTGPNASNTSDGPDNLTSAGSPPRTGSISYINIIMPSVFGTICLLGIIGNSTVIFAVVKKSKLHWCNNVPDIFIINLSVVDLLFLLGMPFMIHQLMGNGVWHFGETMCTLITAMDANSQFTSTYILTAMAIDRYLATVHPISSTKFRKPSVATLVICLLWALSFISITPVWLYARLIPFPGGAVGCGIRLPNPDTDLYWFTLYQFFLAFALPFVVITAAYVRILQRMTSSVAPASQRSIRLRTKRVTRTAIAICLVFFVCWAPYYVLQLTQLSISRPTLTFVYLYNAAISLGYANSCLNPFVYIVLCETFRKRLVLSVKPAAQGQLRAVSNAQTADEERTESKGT

[2] = target: T1, Melanin-concentrating hormone receptor 1; assay: Binding affinity to human MCHR1 expressed in CHO cell membranes; details: tested as the 18F-labelled form
[3] = Drug degradation in human plasma up to 120 mins; assay type: ADME, cell-free; details: read-out: Drug degradation
carboxyl esterase = assay: Drug degradation after 6 hrs in presence of carboxyl esterase; assay type: physicochemical; details: read-out: Drug degradation

pKd [1]: 9.74
Compound: COCC1=C(C(=O)OC)[C@H](c2ccc(F)c(F)c2)N(C(=O)NCCCN2CCC(c3cccc(NC(C)=O)c3)CC2)C(=O)N1

Activity [2]: Active
Compound: COCC1=C(C(=O)OCCF)C(c2ccc(F)c(F)c2)N(C(=O)NCCCN2CCC(c3cccc(NC(C)=O)c3)CC2)C(=O)N1 (centres undefined)

metabolised at 2 h [3]: < 5%
metabolised at 6 h (carboxyl esterase): 20%
Compound: COCC1=C(C(=O)OCC[18F])C(c2ccc(F)c(F)c2)N(C(=O)NCCCN2CCC(c3cccc(NC(C)=O)c3)CC2)C(=O)N1 (centres undefined)
